# Measured values taken from patent publication US9050345B2, “Pyrrolotriazines as potassium ion channel inhibitors” (BRISTOL-MYERS SQUIBB COMPANY, priority 2013, dated 2015).
# Target: T1, human KV 1.5 (IKur) (Homo sapiens, UniProt P22460)
# T1 construct: expressed in transfected cells
# Experiment: block of IKur current in patch clamped L-929 cells expressing human Kv1.5
# Format: cell-based
# Conditions: L929, 0.3 μM; patch clamped mammalian L-929 cells stably expressing human Kv1.5; read-out: KV1_5% Inh L929 @0.3 μM
# T1 sequence (P22460 whole entry): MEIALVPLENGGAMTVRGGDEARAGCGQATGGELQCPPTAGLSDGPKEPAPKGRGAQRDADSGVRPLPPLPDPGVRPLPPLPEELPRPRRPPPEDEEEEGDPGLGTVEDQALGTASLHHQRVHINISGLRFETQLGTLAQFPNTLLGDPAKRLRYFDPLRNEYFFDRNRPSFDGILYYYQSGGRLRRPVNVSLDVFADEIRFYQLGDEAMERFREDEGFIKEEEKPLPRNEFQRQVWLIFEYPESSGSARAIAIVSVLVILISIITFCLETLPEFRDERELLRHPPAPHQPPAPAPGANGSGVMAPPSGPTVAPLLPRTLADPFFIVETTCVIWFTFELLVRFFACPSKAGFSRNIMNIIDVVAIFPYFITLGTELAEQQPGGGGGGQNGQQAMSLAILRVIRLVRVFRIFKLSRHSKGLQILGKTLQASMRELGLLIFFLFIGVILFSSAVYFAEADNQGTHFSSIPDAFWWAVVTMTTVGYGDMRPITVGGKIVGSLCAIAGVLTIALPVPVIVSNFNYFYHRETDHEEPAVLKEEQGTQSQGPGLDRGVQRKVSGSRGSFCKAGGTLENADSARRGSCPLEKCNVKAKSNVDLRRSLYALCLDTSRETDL
row,inhibition at 0.3 µM,Compound
1,96.2%,"NS(=O)(=O)c1cncc(-c2nc(NCc3ncccc3F)c3c(-c4ccccc4)ccn3n2)c1 [Example 138, 5-(4-(((3-fluoropyridin-2-yl)methyl)amino)-5-phenylpyrrolo [2,1-f][1,2,4]triazin-2-yl) pyridine-3-sulfonamide]"
2,98.5%,"COc1cccc(CNc2nc(-c3cnc(OC)c(S(N)(=O)=O)c3)nn3ccc(-c4ccccc4)c23)n1 [Example 139, 2-methoxy-5-(4-(((6-methoxypyridin-2-yl)methyl)amino)-5-phenylpyrrolo [2,1-f][1,2,4]triazin-2-yl)pyridine-3-sulfonamide]"
3,99.1%,"COc1cccc(CNc2nc(-c3cncc(S(N)(=O)=O)c3)nn3ccc(-c4ccccc4)c23)n1 [Example 140, 5-(4-(((6-methoxypyridin-2-yl)methyl)amino)-5-phenylpyrrolo [2,1-f][1,2,4]triazin-2-yl)pyridine-3-sulfonamide]"
4,87.7%,"N#Cc1cccc(F)c1CNc1nc(-c2cncc(S(N)(=O)=O)c2)nn2ccc(-c3ccccc3)c12 [Example 141, 5-(4-((2-cyano-6-fluorobenzyl)amino)-5-phenylpyrrolo [2,1-f][1,2,4]triazin-2-yl)pyridine-3-sulfonamide]"
5,97.2%,"NS(=O)(=O)c1cncc(-c2nc(NCc3cocn3)c3c(-c4ccccc4)ccn3n2)c1 [Example 142, 5-(4-((oxazol-4-ylmethyl)amino)-5-phenylpyrrolo [2,1-f][1,2,4]triazin-2-yl)pyridine-3-sulfonamide]"
6,93.8%,"NS(=O)(=O)c1cncc(-c2nc(N3Cc4ccccc4C3)c3c(-c4ccccc4)ccn3n2)c1 [Example 143, 5-(4-(isoindolin-2-yl)-5-phenylpyrrolo [2,1-f][1,2,4]triazin-2-yl)pyridine-3-sulfonamide]"
7,99%,"NS(=O)(=O)c1cncc(-c2nc(N3Cc4cccnc4C3)c3c(-c4ccccc4)ccn3n2)c1 [Example 144, 5-(4-(5,7-dihydro-6H-pyrrolo[3,4-b]pyridin-6-yl)-5-phenylpyrrolo [2,1-f][1,2,4]triazin-2-yl)pyridine-3-sulfonamide]"
8,62.5%,"NS(=O)(=O)c1cncc(-c2nc(NCC3(O)CCCCC3)c3c(-c4ccccc4)ccn3n2)c1 [Example 145, 5-(4-((1-hydroxycyclohexyl)methylamino)-5-phenylpyrrolo [1,2-f][1,2,4]triazin-2-yl)pyridine-3-sulfonamide]"
9,78.7%,"NS(=O)(=O)c1cncc(-c2nc(NCc3ncc[nH]3)c3c(-c4ccccc4)ccn3n2)c1 [Example 146, 5-(4-((1H-imidazol-2-yl)methylamino)-5-phenylpyrrolo [1,2-f][1,2,4]triazin-2-yl)pyridine-3-sulfonamide]"
10,97.3%,"COc1ncc(-c2nc(NCc3ccccn3)c3c(-c4ccccc4)ccn3n2)cc1S(N)(=O)=O [Example 147, 2-methoxy-5-(5-phenyl-4-(pyridin-2-ylmethylamino)pyrrolo[1,2-f][1,2,4]triazin-2-yl)pyridine-3-sulfonamide]"
11,84.8%,"NS(=O)(=O)c1cncc(-c2nc(NCc3ccccn3)c3c(-c4cccnc4)ccn3n2)c1 [Example 148, 5-(4-(pyridin-2-ylmethylamino)-5-(pyridin-3-yl)pyrrolo [1,2-f][1,2,4]triazin-2-yl)pyridine-3-sulfonamide]"
12,95.8%,"NS(=O)(=O)c1cccc(-c2nc(NCc3ccccc3)c3c(-c4ccccc4)ccn3n2)c1 [Example 149, 3-(4-(benzylamino)-5-phenylpyrrolo[1,2-f] [1,2,4]triazin-2-yl)benzenesulfonamide]"
13,97.5%,"NS(=O)(=O)c1cccc(-c2nc(NCc3ccccn3)c3c(-c4ccccc4)ccn3n2)c1 [Example 150, 3-(5-phenyl-4-(pyridin-2-ylmethylamino)pyrrolo [1,2-f][1,2,4]triazin-2-yl)benzenesulfonamide]"
14,94.2%,"Oc1ccc(-c2nc(NCc3ccccn3)c3c(-c4ccccc4)ccn3n2)cn1 [Example 151, 5-(5-phenyl-4-((pyridin-2-ylmethyl)amino)pyrrolo [2,1-f][1,2,4]triazin-2-yl)pyridin-2-ol]"
15,97.3%,"NS(=O)(=O)c1cncc(-c2nc(NCc3ncccn3)c3c(-c4ccccc4)ccn3n2)c1 [Example 152, 5-(5-phenyl-4-((pyrimidin-2-ylmethyl)amino)pyrrolo[2,1-f][1,2,4]triazin-2-yl)pyridine-3-sulfonamide]"
16,79.9%,"NS(=O)(=O)c1cnc(O)c(-c2nc(NCc3ccccn3)c3c(-c4ccccc4)ccn3n2)c1 [Example 153, 6-hydroxy-5-(5-phenyl-4-((pyridin-2-ylmethyl)amino)pyrrolo [2,1-f][1,2,4]triazin-2-yl)pyridine-3-sulfonamide]"
17,89.5%,"NS(=O)(=O)c1cncc(-c2nc(NCc3cnccn3)c3c(-c4ccccc4)ccn3n2)n1 [Example 154, 6-(5-phenyl-4-((pyrazin-2-ylmethyl)amino)pyrrolo [2,1-f][1,2,4]triazin-2-yl)pyrazine-2-sulfonamide]"
18,30.2%,"NS(=O)(=O)c1cncc(-c2nc(NCCN3CCOCC3)c3c(-c4ccccc4)ccn3n2)c1 [Example 155, 5-(4-((2-morpholinoethyl)amino)-5-phenylpyrrolo [2,1-f][1,2,4]triazin-2-yl)pyridine-3-sulfonamide]"
19,98.5%,"NS(=O)(=O)c1cncc(-c2nc(NCc3cnccn3)c3c(-c4ccccc4F)ccn3n2)c1 [Example 156, 5-(5-(2-fluorophenyl)-4-((pyrazin-2-ylmethyl)amino)pyrrolo [2,1-f][1,2,4]triazin-2-yl)pyridine-3-sulfonamide]"
20,94.5%,"Oc1cc(-c2nc(NCc3ccccn3)c3c(-c4ccccc4)ccn3n2)ccn1 [Example 157, 4-(5-phenyl-4-((pyridin-2-ylmethyl)amino)pyrrolo [2,1-f][1,2,4]triazin-2-yl)pyridin-2-ol]"
21,92%,"NS(=O)(=O)c1cncc(-c2nc(NCc3cccnc3)c3c(-c4ccccc4)ccn3n2)c1 [Example 158, 5-(5-phenyl-4-(pyridin-3-ylmethylamino)pyrrolo [1,2-f][1,2,4]triazin-2-yl)pyridine-3-sulfonamide]"
22,90%,NS(=O)(=O)c1cncc(-c2nc(NCc3ccncc3)c3c(-c4ccccc4)ccn3n2)c1 [Example 159]
23,94.7%,"NS(=O)(=O)c1cncc(-c2nc(NCc3cnccn3)c3c(-c4ccccc4)ccn3n2)c1 [Example 160, 5-(5-phenyl-4-(pyrazin-2-ylmethylamino)pyrrolo [1,2-f][1,2,4]triazin-2-yl)pyridine-3-sulfonamide]"
24,97.9%,"Nc1cncc(-c2nc(NCc3cnccn3)c3c(-c4ccccc4)ccn3n2)c1 [Example 161, 2-(5-aminopyridin-3-yl)-5-phenyl-N-(pyrazin-2-ylmethyl)pyrrolo[1,2-f] [1,2,4]triazin-4-amine]"
25,95.6%,"Nc1cncc(-c2nc(NCc3ncccn3)c3c(-c4ccccc4)ccn3n2)c1 [Example 162, 2-(5-aminopyridin-3-yl)-5-phenyl-N-(pyrimidin-2-ylmethyl)pyrrolo[2,1-f] [1,2,4]triazin-4-amine]"
26,97.5%,"NS(=O)(=O)c1cncc(-c2nc(NCc3nccs3)c3c(-c4ccccc4)ccn3n2)c1 [Example 163, 5-(5-phenyl-4-((thiazol-2-ylmethyl)amino)pyrrolo [2,1-f][1,2,4]triazin-2-yl)pyridine-3-sulfonamide]"
